Source: paper PMC12668289 (RSC Chemical Biology, 2025)

How the values were obtained:
Pmluc-N230S = assay: BL emission spectra of luciferase-luciferin reactions; type: biochemical, Pyrocoelia miyako; details: 100 mM HEPES pH 8.0, 25 °C
Protocol: were selected to investigate their BL emission spectra with luciferases including Fluc, SLR, Pmluc-WT, Pmluc-N230S using an integrating sphere-based multichannel spectrometer with a charge-coupled device (CCD) detector.
The reactions were initiated by mixing 25 µl of premixed solution of luciferases/D-LH 2 analogues with 125 µl of 3 mM ATP and 6 mM MgCl2 in 100 mM HEPES-NaOH (pH 8.0).

Fluc [1] = target: T1, Fluc (Photinus pyralis, UniProt P08659); details: Fluc; cited from earlier work
SLR = assay: Stability of BL signals (half-time of light emission); type: biochemical, Phrixothrix hirtus; details: compared to 2a
Protocol: (§1) 1.5 Bioluminescence characterizations
(§2) Reactions of luciferases, including Photinus pyralis luciferase (Fluc), Phrixothrix hirtus luciferase (SLR), Pyrearinus termitilluminans […]
(§3) mM D-LH 2 analogues, 3 mM ATP, 6 mM MgCl2, and 10 µM luciferase in 0.2 ml of 100 mM HEPES-NaOH pH 8.0. The bioluminescence (BL) emission characteristics were recorded using a microplate reader in a BL mode (Thermo Scientific, Varioskan, LUX multimode). A digital single-lens reflex (DSLR) camera (Nikon D80, CCD sensor) with a 30-second exposure period was used to capture the BL images. […]

Fluc [2] = target: T1, Fluc; assay: as above; type: biochemical; details: compared to 2a
Protocol: as §1, §2, §3

T1 sequence (P08659 whole entry): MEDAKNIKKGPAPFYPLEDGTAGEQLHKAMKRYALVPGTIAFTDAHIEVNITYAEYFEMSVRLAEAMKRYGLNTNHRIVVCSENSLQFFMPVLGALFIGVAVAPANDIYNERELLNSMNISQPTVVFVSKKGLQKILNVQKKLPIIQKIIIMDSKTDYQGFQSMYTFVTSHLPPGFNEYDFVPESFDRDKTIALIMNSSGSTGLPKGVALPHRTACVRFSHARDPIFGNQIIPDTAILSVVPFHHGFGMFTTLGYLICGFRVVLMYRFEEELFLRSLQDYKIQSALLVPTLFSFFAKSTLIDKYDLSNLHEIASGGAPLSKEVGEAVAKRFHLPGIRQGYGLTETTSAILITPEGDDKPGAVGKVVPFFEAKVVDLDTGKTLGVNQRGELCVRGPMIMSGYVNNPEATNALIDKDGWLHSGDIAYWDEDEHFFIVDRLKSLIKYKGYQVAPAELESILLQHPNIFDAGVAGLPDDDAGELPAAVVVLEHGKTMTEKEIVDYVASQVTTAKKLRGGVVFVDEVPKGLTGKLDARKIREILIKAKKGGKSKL

For `O=C(O)[C@H]1CSC(c2nc3ccc(O)cc3s2)=N1` [Compound 2a, D-luciferin, reference compound], the “Bioluminescence wavelength (BLλ)” value (Pmluc-N230S) is given as 614 nm and the Quantum yield (Fluc [1]) is given as 41%.

In the case of `Cc1cc2nc(C3=N[C@@H](C(=O)O)CS3)sc2cc1O` [Compound 2b, 5’-methyl-D-luciferin], the “BL half-life (t1/2) longer than that of 2a” value (SLR) is reported as “about 1.5 fold”.

In the case of `Cc1cc2nc(C3=N[C@@H](C(=O)O)CS3)sc2c(C)c1O` [Compound 2c, 5’,7’-di-methyl-D-luciferin], the “BL half-life (t1/2) longer than that of 2a” value (Fluc [2]) is reported as “about 1.7 fold”.
